From ChEMBL document CHEMBL4616705, “Computer-Aided Fragment Growing Strategies to Design Dual Inhibitors of Soluble Epoxide Hydrolase and LTA4 Hydrolase” (ACS Med Chem Lett, 2020)

Tests used:
[1] = target: T1, Bifunctional epoxide hydrolase 2 (Homo sapiens, UniProt P34913); test: (§1) Inhibition of recombinant human full length sEH (1 to 555 residues) expressed in Escherichia coli BL21 DE3 cells assessed as reduction in 6-methoxynaphthaldehyde formation using PHOME as substrate incubated for 45 mins followed by substrate addition and measured for 45 mins by fluorescence based assay
T1 sequence (P34913 whole entry): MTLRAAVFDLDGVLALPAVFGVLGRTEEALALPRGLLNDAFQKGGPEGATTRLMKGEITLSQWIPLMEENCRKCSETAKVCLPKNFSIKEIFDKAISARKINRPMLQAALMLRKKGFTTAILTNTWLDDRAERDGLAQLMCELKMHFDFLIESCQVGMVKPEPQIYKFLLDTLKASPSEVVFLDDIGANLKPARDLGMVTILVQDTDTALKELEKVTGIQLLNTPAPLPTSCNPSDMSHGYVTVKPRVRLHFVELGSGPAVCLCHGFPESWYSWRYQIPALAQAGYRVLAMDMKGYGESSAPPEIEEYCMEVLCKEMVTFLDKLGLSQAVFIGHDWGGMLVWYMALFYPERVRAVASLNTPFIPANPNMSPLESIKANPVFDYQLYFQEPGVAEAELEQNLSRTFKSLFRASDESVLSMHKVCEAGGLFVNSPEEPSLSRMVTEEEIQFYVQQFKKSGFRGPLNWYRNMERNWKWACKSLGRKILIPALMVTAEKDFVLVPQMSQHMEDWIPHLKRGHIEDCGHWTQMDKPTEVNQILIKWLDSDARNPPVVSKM

[2] = target: T2, Leukotriene A-4 hydrolase (Homo sapiens, UniProt P09960); test: (§2) Inhibition of recombinant human full length C-terminal His6-tagged LTA4H expressed in Escherichia coli BL21 DE3 cells assessed as reduction in amino-4-methylcoumarin formation using L-arginine-7-amino-4-methylcoumarin as substrate incubated for 30 mins followed by substrate addition and measured for 30 mins by fluorescence based assay
T2 sequence (P09960 whole entry): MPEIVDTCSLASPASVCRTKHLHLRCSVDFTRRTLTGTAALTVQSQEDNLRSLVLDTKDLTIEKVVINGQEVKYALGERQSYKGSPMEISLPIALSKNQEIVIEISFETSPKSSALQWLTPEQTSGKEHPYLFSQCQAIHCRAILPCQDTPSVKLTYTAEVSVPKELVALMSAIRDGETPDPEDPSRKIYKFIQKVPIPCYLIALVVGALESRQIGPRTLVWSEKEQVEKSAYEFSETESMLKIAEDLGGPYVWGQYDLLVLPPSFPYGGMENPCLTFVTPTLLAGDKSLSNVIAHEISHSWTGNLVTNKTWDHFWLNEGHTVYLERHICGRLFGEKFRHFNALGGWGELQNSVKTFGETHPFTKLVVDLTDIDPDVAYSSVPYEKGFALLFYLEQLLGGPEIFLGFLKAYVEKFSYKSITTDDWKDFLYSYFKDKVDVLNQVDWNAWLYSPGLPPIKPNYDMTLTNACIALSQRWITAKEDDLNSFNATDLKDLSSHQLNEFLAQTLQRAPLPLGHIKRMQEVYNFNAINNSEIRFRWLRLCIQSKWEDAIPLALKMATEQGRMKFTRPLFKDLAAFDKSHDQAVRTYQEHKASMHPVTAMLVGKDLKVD

[3] = target: T3, Bifunctional epoxide hydrolase 2 (Homo sapiens) (UniProt P34913); test: as §1, with “as substrate at 10 uM incubated for” for “as substrate incubated for”, “based assay relative to control” for “based assay”
T3 sequence (whole entry): T1 sequence (P34913 whole entry)

[4] = target: T4, Leukotriene A-4 hydrolase (Homo sapiens) (UniProt P09960); test: as §2, with “as substrate at 10 uM incubated for” for “as substrate incubated for”, “based assay relative to control” for “based assay”
T4 sequence (whole entry): T2 sequence (P09960 whole entry)

Structure (SMILES)	IC50 [1]	IC50 [2]	inhibition [3]	inhibition [4]
O=C(CCc1ccc(OCc2ccccc2)cc1)NCC1CCCN(CCc2ccccc2)C1 (stereo not given)	15 µM			
O=C(CCc1ccc(OCc2ccccc2)cc1)NCC1CCN(CCCc2ccccc2)CC1		18.3 µM	7%	
O=C(CCc1ccc(OCc2ccccc2)cc1)NCCC1CCN(Cc2ccccc2)C1 (stereo not given)	28 µM	3.2 µM		
O=C(CCc1ccc(OCc2ccccc2)cc1)Nc1ccc(S(=O)(=O)NCC(F)(F)F)cc1			6%	9%
O=C(CCc1ccc(OCc2ccccc2)cc1)Nc1ccc(OCCN2CCCCCC2)cc1	16 µM			16%

Further compounds by falling IC50 [1], results first:

IC50 [1]	IC50 [2]	inhibition [3]	inhibition [4]	Structure (SMILES)
10 µM			4%	O=C(CCc1ccc(OCc2ccccc2)cc1)NCC1CCN(c2cccc(Br)c2)C1 (stereo not given)
4.7 µM				CCOP(=O)(OCC)c1ccc(NC(=O)CCc2ccc(OCc3ccccc3)cc2)cc1
1.3 µM			16%	O=C(CCc1ccc(OCc2ccccc2)cc1)Nc1ccc(CCN2CCOCC2)cc1
0.5 µM				O=C(CCc1ccc(OCc2ccccc2)cc1)NCC1CCN(Cc2cccs2)CC1
